Source: ChEMBL document CHEMBL1201862, “PubChem BioAssay data set” (2004)
Active and inactive are the calls of the source.

What was measured:
[1] = target: Long-chain-fatty-acid--AMP ligase FadD28 (Mycobacterium tuberculosis, UniProt P9WQ59); assay: Fluorescence polarization aasay to screen for inhibitors that compete for the binding of FadD28 to a bisubstrate Measured in Biochemical System Using Plate Reader - 2147-01_Inhibitor_Dose_CherryPick_Activity.; format: functional, Mycobacterium tuberculosis H37Rv
Sequence of Long-chain-fatty-acid--AMP ligase FadD28 (P9WQ59 whole entry): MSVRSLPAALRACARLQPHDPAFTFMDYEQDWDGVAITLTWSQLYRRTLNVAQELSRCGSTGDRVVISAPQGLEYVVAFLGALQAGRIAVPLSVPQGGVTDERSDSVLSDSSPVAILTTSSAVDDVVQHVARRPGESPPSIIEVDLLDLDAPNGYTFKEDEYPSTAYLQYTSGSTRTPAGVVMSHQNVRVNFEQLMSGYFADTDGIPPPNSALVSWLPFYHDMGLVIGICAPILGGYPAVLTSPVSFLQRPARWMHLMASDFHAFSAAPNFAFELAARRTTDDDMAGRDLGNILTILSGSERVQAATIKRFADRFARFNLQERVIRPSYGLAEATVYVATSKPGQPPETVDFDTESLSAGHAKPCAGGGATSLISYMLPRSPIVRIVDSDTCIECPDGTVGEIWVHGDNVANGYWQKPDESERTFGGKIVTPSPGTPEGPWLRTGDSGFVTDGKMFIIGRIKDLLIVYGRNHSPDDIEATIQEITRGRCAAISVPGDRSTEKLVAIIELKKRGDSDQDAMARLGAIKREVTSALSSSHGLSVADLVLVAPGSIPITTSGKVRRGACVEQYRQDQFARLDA

[2] = HEK293T cytotoxicity, dose response, cytotoxicity control for miR-122 modulator project, cell-based, activator set, cherry-pick (AID 720690); format: functional;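 further: HEK293T human cells scored for general mammalian cytotoxicity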
Nonstructural protein 1 = Nonstructural protein 1 (Influenza A virus, UniProt Q194T2); format: functional, Influenza A virus (A/California/07/2009(H1N1))
Sequence of Nonstructural protein 1 (Q194T2 whole entry): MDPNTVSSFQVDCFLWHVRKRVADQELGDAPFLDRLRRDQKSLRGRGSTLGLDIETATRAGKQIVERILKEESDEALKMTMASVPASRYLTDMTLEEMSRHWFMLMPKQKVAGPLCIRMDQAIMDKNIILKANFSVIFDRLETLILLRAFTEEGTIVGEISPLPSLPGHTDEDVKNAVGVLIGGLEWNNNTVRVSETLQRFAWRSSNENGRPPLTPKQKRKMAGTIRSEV

[3] = target: Histone-lysine N-methyltransferase NSD2 (Homo sapiens, UniProt O96028); format: biochemical
Vero = assay: cells; format: functional; conditions: Chlorocebus sabaeus
[4] = target: T1, Mitochondrial peptide methionine sulfoxide reductase (Bos taurus, UniProt P54149); assay: Absorbance-based biochemical high throughput dose response assay for activators of Methionine sulfoxide reductase A (MsrA).; format: functional
T1 sequence (P54149 whole entry): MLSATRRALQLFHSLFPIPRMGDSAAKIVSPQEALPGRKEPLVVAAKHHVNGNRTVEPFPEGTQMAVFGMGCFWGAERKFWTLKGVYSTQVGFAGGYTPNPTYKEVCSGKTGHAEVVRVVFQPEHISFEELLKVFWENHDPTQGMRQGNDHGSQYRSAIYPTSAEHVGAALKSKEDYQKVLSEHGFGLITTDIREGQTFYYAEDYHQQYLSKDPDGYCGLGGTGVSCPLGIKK

[5] = target: SWI/SNF-related matrix-associated actin-dependent regulator of chromatin subfamily A member 2 (Homo sapiens, UniProt P51531); assay: Luminescence-based cell-based high throughput dose response assay to identify activators of the function of SWI/SNF related, matrix associated, actin dependent regulator of chromatin, subfamily a, member 2 (SMARCA2, BRM).; format: functional
Sequence of SWI/SNF-related matrix-associated actin-dependent regulator of chromatin subfamily A member 2 (P51531 whole entry): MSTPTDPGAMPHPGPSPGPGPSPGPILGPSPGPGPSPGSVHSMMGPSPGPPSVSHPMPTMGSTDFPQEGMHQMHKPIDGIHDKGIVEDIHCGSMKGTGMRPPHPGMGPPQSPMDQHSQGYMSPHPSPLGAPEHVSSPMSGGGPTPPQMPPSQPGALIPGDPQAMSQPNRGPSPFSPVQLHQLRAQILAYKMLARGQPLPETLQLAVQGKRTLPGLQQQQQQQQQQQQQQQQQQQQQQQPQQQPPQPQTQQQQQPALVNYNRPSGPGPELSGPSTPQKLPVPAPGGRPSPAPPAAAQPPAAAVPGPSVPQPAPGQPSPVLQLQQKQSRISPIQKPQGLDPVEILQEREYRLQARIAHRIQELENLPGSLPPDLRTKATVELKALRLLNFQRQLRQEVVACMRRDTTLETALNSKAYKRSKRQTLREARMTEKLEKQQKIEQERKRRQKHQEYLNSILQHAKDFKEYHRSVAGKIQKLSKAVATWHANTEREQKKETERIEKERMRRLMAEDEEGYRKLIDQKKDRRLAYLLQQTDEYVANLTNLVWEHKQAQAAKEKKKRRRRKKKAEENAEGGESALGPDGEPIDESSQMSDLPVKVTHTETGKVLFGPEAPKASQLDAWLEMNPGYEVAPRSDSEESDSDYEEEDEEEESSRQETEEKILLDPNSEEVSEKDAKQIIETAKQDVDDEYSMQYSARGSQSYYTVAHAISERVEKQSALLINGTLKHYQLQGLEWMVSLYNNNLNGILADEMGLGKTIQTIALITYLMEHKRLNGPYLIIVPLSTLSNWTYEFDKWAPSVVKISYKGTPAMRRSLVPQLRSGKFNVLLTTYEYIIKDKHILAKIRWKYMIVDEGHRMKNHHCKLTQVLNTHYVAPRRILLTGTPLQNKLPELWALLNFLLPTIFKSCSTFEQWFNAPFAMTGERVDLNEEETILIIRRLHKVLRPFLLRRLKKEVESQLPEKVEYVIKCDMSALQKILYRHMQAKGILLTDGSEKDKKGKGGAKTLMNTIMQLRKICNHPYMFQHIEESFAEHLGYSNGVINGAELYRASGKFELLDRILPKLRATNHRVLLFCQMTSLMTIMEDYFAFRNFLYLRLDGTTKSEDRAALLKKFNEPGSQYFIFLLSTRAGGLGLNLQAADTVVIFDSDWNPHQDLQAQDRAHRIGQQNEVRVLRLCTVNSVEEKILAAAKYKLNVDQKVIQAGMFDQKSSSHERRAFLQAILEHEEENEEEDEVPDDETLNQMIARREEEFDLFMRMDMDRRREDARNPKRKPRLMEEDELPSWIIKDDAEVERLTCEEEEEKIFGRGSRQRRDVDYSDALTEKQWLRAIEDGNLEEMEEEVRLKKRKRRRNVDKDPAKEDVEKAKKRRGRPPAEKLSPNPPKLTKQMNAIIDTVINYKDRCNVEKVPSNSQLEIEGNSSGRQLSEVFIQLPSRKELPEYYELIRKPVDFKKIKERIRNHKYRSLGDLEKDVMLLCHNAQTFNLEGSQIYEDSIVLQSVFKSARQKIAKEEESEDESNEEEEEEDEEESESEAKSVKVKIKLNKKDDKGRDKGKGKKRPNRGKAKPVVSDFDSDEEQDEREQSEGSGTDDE

[6] = Counterscreen for activators of the function of SWI/SNF related, matrix associated, actin dependent regulator of chromatin, subfamily a, member 2 (SMARCA2, BRM): Luminescence-based cell-based high throughput dose response assay to identify non-selective compounds using the VP16 reporter assay.; format: functional
[7] = target: T2, Calpain-2 catalytic subunit (Sus scrofa, UniProt P43367); assay: pig calpain II inhibitor potency, dose response, biochemical, fluorogenic peptide substrate (AID 1420); format: functional
T2 sequence (P43367 whole entry): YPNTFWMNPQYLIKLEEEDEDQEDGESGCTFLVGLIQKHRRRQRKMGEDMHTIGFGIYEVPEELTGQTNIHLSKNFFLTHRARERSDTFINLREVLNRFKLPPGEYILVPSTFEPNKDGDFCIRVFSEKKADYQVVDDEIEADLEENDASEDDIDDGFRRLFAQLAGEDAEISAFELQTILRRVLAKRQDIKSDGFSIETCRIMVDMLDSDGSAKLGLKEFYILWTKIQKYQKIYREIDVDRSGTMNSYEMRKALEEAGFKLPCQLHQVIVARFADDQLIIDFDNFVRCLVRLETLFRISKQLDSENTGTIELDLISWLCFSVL

[8] = target: Arf-GAP with SH3 domain, ANK repeat and PH domain-containing protein 1 (Homo sapiens, UniProt Q9ULH1); format: functional;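 further: biochemical fluorescence polarization dose–response screen measuring inhibition of ASAP1; ASAP1 GAP domain stimulating GTP hydrolysis by truncated human ARF1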
Sequence of Arf-GAP with SH3 domain, ANK repeat and PH domain-containing protein 1 (Q9ULH1 whole entry, the tested form may be a part): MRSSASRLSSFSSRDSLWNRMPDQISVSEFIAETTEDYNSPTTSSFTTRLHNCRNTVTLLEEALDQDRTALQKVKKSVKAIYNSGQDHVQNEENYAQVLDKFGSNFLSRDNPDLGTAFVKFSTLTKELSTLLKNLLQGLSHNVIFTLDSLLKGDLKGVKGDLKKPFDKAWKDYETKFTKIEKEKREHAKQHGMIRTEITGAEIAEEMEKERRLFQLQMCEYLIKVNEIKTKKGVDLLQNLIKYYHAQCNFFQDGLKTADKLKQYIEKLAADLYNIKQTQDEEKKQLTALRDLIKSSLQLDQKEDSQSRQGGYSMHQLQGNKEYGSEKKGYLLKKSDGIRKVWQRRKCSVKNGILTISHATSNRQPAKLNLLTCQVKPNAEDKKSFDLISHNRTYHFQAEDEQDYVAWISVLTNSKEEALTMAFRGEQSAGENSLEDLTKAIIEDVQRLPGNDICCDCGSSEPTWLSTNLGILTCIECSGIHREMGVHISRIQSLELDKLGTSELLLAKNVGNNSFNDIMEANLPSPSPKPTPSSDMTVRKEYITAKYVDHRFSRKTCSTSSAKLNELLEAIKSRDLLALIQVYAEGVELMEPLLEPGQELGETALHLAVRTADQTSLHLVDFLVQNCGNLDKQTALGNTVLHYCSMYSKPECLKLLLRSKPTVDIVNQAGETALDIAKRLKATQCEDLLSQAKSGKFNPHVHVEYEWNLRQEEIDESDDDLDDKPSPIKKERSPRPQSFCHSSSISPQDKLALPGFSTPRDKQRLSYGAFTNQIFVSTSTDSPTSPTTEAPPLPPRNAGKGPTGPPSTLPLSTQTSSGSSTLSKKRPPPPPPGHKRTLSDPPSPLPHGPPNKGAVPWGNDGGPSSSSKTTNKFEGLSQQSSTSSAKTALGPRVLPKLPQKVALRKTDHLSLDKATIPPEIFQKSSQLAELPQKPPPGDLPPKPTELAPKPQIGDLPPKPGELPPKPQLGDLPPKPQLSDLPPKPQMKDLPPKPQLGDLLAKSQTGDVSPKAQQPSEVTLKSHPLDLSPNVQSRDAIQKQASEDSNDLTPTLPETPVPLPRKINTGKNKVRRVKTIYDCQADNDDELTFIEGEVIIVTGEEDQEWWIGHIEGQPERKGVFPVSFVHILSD

[9] = target: T3, RNA-binding protein pos-1 (Caenorhabditis elegans, UniProt G5EF15); assay: inhibitors of POS-1/mex-3 RNA binding, dose response, biochemical, fluorescence polarization (AID 1964);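 further: purified POS-1 fused to maltose binding protein made in E. coli; potency of compounds blocking POS-1 binding to fluorescent RNA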
T3 sequence (G5EF15 whole entry): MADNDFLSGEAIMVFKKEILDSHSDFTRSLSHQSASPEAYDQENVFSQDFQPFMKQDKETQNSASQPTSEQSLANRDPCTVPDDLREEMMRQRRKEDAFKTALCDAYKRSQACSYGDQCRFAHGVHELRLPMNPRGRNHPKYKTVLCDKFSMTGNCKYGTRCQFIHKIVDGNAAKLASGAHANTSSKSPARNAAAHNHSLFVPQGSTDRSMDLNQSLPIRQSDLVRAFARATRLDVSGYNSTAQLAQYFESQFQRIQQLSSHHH

[10] = target: T4, Zinc finger protein mex-5 (Caenorhabditis elegans, UniProt Q9XUB2); assay: MEX-5/TCR-2 RNA interaction inhibitors, dose response, biochemical, C. elegans, fluorescence polarization (AID 1960)
T4 sequence (Q9XUB2 whole entry): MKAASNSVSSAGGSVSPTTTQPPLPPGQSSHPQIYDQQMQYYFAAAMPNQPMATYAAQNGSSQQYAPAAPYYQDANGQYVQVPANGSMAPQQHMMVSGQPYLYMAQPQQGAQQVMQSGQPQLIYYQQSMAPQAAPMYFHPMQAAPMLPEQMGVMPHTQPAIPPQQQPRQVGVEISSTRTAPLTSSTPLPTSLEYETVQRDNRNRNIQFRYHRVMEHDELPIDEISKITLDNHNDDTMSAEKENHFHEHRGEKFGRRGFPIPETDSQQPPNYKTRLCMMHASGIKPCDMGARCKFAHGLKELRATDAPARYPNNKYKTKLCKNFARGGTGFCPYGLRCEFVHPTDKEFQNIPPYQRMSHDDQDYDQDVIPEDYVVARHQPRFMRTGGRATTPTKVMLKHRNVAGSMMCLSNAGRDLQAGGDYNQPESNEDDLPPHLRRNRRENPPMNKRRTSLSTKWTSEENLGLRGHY

[11] = target: T5, Sentrin-specific protease 1 (Homo sapiens, UniProt Q9P0U3); assay: potency of human SENP1 inhibitors, dose response, biochemical, kinetic FRET (AID 651697); format: functional; conditions: read-out: IC50_Mean
T5 sequence (Q9P0U3 whole entry): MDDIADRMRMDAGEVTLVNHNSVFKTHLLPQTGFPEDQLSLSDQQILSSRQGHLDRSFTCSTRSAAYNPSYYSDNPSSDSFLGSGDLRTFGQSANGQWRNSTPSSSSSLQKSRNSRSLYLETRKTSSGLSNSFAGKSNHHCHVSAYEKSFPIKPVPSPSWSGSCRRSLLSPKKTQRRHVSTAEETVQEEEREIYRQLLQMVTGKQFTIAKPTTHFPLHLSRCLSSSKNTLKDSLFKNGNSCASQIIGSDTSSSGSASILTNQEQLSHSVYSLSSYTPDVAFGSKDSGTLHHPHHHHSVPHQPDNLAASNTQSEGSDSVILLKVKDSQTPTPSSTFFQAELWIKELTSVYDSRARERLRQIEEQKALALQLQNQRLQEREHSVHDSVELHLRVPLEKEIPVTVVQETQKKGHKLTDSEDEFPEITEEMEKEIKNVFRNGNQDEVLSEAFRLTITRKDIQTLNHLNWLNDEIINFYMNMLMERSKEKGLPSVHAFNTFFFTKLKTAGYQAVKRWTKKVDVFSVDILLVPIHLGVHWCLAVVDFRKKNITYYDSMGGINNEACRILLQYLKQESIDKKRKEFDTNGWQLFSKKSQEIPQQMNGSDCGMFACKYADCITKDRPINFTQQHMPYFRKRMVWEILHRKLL

[12] = target: T5, Sentrin-specific protease 1; assay: Dose response confirmation of small molecule inhibitors of the catalytic domain of the SUMO protease, SENP1 in a FRET assay.; format: functional; conditions: read-out: IC50_Mean
[13] = target: T6, Replicative DNA helicase DnaB (Mycobacterium tuberculosis, UniProt P9WMR3); assay: DnaB intein splicing inhibitors, dose response, biochemical, cell-free fluorescence (AID 449749); format: functional
T6 sequence (P9WMR3 whole entry): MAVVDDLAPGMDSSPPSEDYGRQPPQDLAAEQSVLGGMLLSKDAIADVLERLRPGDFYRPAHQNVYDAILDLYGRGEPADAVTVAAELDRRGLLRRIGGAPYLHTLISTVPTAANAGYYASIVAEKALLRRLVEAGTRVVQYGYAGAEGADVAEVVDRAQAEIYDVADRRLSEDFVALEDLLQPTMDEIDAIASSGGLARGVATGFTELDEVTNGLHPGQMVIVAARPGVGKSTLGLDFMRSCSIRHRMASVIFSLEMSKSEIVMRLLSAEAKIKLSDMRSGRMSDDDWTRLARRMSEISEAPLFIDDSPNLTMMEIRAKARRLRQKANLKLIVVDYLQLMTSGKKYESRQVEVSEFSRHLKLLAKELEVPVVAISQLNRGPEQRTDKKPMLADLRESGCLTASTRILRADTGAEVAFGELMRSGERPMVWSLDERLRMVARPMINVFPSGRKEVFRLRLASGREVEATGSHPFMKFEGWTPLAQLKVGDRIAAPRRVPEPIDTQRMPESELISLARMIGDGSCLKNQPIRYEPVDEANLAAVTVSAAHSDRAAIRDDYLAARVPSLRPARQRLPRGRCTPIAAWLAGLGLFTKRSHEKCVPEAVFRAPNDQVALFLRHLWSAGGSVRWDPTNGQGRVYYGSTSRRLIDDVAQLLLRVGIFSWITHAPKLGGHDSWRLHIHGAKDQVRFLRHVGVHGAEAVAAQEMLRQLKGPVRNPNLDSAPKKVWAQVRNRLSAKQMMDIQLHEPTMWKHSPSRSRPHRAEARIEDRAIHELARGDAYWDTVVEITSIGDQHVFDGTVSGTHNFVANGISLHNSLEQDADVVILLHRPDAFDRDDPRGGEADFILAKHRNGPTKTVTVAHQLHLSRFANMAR

Protein RecA = target: T7, Protein RecA (Mycobacterium tuberculosis, UniProt P9WHJ3); assay: Fluorescence Cell-Free Homogeneous Dose Retest to Identify Inhibitors of RecA-Intein Splicing Activity. [Related pubchem assays (depositor defined):AID2097, AID2223, AID489010, AID492950]; format: functional
T7 sequence (P9WHJ3 whole entry): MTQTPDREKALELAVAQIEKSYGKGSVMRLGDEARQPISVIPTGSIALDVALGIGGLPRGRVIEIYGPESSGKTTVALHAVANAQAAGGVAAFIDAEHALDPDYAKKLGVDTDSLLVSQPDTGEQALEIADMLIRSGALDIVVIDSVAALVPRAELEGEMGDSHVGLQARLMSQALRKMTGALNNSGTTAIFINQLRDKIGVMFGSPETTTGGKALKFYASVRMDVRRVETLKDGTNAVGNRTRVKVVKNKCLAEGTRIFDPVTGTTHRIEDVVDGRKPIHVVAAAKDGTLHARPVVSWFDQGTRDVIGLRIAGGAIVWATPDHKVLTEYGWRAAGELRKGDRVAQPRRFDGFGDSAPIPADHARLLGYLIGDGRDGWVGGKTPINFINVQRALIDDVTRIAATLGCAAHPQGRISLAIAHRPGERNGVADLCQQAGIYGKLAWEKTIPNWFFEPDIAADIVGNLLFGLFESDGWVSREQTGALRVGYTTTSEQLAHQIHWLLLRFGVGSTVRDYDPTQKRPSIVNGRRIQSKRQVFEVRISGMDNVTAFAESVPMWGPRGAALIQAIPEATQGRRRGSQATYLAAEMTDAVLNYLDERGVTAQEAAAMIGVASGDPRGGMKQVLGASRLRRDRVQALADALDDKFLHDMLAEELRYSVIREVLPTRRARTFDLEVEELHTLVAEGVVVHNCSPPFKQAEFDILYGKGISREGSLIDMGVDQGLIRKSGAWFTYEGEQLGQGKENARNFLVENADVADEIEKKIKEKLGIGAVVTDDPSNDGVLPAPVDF

[14] = target: DNA repair protein RAD52 homolog (Homo sapiens, UniProt P43351); format: functional, biochemical
Sequence of DNA repair protein RAD52 homolog (P43351 whole entry): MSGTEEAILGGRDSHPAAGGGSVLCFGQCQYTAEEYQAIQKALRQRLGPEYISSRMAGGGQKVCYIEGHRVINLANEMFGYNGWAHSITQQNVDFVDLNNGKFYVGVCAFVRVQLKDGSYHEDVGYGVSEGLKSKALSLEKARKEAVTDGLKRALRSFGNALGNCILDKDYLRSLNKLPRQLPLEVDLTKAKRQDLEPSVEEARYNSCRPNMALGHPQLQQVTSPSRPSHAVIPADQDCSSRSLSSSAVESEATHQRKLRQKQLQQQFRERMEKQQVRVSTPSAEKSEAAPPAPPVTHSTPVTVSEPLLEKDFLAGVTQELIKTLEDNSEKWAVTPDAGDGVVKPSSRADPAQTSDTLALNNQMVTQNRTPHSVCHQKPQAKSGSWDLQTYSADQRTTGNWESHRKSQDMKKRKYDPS

[15] = A549 cell cytotoxicity, dose response, cytotoxicity control, cherry-picks, 26 µM top dose (AID 1053119); format: functional, cell-based
Protein Wnt-3a = Protein Wnt-3a (Mus musculus, UniProt P27467); assay: SAR analysis of small molecule antagonists of Gli-SUFU in a Wnt3a luminescent reporter assay.; format: functional
Sequence of Protein Wnt-3a (P27467 whole entry, the tested form may be a part): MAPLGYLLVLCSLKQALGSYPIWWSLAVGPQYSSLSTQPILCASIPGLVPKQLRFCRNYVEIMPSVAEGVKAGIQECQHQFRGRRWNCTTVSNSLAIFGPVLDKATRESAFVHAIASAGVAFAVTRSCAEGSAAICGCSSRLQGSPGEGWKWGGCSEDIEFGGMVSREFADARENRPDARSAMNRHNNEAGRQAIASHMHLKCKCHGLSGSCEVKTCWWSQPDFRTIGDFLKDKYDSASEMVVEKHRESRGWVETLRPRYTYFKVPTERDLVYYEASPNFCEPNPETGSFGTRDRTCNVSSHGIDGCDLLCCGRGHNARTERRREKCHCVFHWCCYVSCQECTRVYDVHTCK

[16] = off-target signal loss in HeLa-CEM21 co-culture – HeLa F-luc CTL cells, cherry-picked, counter-screen for HIV-1 Env fusion inhibitor project, dose response (AID 652040); format: functional, cell-based;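 further: potency for signal decrease marking cytotoxic or nonspecific inhibition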
[17] = inhibitors of clade B AD8 Env fusion, dose response, cell-based, cherry-pick (AID 652062); format: functional;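 further: luciferase signal from cell-cell fusion driven by HIV-1 clade B AD8 Env; potency is for inhibitors of fusion seen as a drop in luminescence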
Cytochrome P450 2C9 = Cytochrome P450 2C9 (Homo sapiens, UniProt P11712)
Sequence of Cytochrome P450 2C9 (P11712 whole entry): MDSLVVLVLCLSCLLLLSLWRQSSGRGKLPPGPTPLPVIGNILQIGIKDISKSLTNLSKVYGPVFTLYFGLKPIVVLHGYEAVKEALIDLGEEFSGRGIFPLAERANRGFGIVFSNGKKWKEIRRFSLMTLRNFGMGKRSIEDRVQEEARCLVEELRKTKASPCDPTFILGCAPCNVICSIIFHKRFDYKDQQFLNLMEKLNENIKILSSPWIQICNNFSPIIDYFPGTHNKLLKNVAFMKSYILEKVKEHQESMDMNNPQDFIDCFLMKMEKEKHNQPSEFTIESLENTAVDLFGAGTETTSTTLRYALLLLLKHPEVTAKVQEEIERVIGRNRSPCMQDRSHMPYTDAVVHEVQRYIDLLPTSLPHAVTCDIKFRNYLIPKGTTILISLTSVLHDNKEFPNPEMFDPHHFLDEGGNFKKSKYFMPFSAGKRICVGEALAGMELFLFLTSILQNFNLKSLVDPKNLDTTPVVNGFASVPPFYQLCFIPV

Cc1ccc(N=C(S)N(C)Cc2cn(C)c3ccccc23)cc1
AC50 [1]: 78.8 µM (active)

COc1ccc(CN(C)C[C@@H]2OCCCC[C@H](C)Oc3ccc(NC(=O)Nc4ccc(C(F)(F)F)cc4)cc3C(=O)N([C@H](C)CO)C[C@H]2C)cc1
AC50 [2]: 16.6 µM (active)

COC1=C(Nc2ccc(OC)cc2)C(=O)c2ccccc2C1=O
IC50 (Nonstructural protein 1): 9.3 µM (active) | AC50 [3]: 8.98 µM (active)

O=C(Nc1cccc([N+](=O)[O-])c1)c1ccc([N+](=O)[O-])o1
CC50 (Vero): 12 µM (active) | EC50 [4]: > 104 µM (inactive) | EC50 [5]: > 91.2 µM (inactive) | EC50 [6]: > 91.2 µM (inactive)

O=C(Nc1ccc2oc(=O)ccc2c1)c1ccc(-c2ccc(Cl)cc2)o1
IC50 [7]: 18.2 µM (not active) | IC50 [8]: 9.51 µM (active)

COc1ccc2nc3ccccc3nc2c1NC(=O)c1ccc(Br)cc1
EC50 [9]: 6.41 µM (active) | EC50 [10]: 6.66 µM (inconclusive) | IC50 [11]: 10 µM (active) | IC50 [12]: 9.47 µM (active)

Nc1nnc(SCCCOc2ccc(F)cc2)s1
AC50 [1]: 46.6 µM (active)

Nc1ccc2[nH]cnc2c1
AC50 [13]: 2.92 µM (active) | EC50 (Protein RecA): 23.6 µM (active) | AC50 [14]: 6.22 µM (active)

COc1cc2sc3ccc(C#Cc4ccccn4)cc3c(=O)c2cc1OC
IC50 [8]: 22.9 µM (inactive)

CN(C)C(=O)c1ccc(-c2ccc3c(c2)[C@H]2[C@H](CCN2C(=O)c2ccc(F)cc2)[C@@H](CO)N3C)cc1
AC50 [15]: > 47 µM (inactive)

C=C1C(=O)[C@]23C[C@H]1CC[C@H]2[C@]1(C)[C@@H](O)CC[C@@](C)(C(=O)O)[C@H]1C[C@@H]3O [GEOPYXIN A]
EC50 [5]: > 91.1 µM (inactive) | EC50 [6]: > 91.1 µM (inactive)

COc1cc(OC)cc(C(=O)Nc2cc(N3CCCCC3)ncn2)c1
IC50 (Protein Wnt-3a): > 21.8 µM (inactive)

O=C(Nc1ccc(S(=O)(=O)N2CCCC2)cc1)c1ccc(CN2CCOCC2)cc1
AC50 [16]: > 70 µM (inactive) | AC50 [17]: 6.7 µM (active) | AC50 (Cytochrome P450 2C9): 10 µM (inconclusive)

Cc1ccc(C(=O)Nc2cc(N3CCCCC3)ncn2)cc1
IC50 (Protein Wnt-3a): > 21.8 µM (inactive)

O=C1NC(=O)/C(=C/c2c(O)ccc3ccccc23)N1
IC50 [11]: 6.2 µM (active) | IC50 [12]: 4.34 µM (active)
